Measured values taken from US8927063B2, “Compositions for the treatment of timber and other wood substrates” (TimTechChem International Limited, priority 2008, dated 2015).

Assays:
[1] = Example 2: solvent evaporation rate from treated wood pieces (daily re-weighing); settings: 17-22 °C, no external airflow
Method: The wood pieces were placed on plastic bearers allowing good access of air to all surfaces and situated in a dedicated room with no external airflow. Air temperatures in the room were mainly in the range 17-22° C.
The wood pieces were re-weighed daily to determine weight loss rates for the various solvents.

[2] = Example 3: solubility and formulation stability in ester solvents
Method: Further formulation tests were carried out to ascertain if the fungicide IPBC (iodo propyl butyl carbamate, CAS No 55406-53-6) was soluble in ester compounds of formula (I).

CCOC(C)=O [ethyl ethanoate]
% Solvent Remaining in Wood ([1]; After 24 h): 3.8%
% Solvent Remaining in Wood ([1]; After 48 h): 0%
% Solvent Remaining in Wood ([1]; After 72 h): 0%

N#Cc1c(Cl)c(Cl)c(Cl)c(C#N)c1Cl [chlorothalonil]
solubility ([2]; in butyl ethanoate): less than 1%
solubility ([2]; in propyl ethanoate): less than 1%

CC(C)(C)C(O)(CCc1ccc(Cl)cc1)Cn1cncn1 (stereo not drawn) [tebuconazole]
solubilisation in the esters of the invention [2]: good solubilisation

CCCCOC(C)=O [n-butyl ethanoate]
% Solvent Remaining in Wood ([1]; After 24 h): 6.9%
% Solvent Remaining in Wood ([1]; After 48 h): 3.1%
% Solvent Remaining in Wood ([1]; After 72 h): 0.8%
